Test results reported in the supplement of paper PMC9386025.

Assays:
Assay in all cases: drug sensitivity score (DSS) (DSS (dimensionless)); higher = more sensitive (stronger drug response)
OVSAHO = system: OVSAHO
In short: (§1)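 Drugs were pre-plated in 384-well plates at five concentrations covering a 10,000-fold range, and 1 000 – 1 500 cells per well were added from patient-derived cultures or from ovarian cancer cell lines whose shRNA had been induced with 100 ng/ml doxycycline for three days or longer. Incubation lasted three days at 37 °C under 5.0 % CO2. A PHERAstar FS then recorded CellTiter-Glo luminescence as the readout of viability. A drug sensitivity score, calculated as described before, summarised the dose-response curve of every drug.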

FIMM-PDC6 = patient-derived ovarian cancer cells; settings: genetic perturbation: none (patient-derived cell culture)
In short: as §1

FIMM-PDC4 = patient-derived ovarian cancer cells; settings: genetic perturbation: none (patient-derived cell culture)
In short: as §1

Kuramochi = system: Kuramochi
In short: as §1

FIMM-PDC7 = patient-derived ovarian cancer cells; settings: genetic perturbation: none (patient-derived cell culture)
In short: as §1

FIMM-PDC5 = patient-derived ovarian cancer cells; settings: genetic perturbation: none (patient-derived cell culture)
In short: as §1

FIMM-PDC3 = patient-derived ovarian cancer cells; settings: genetic perturbation: none (patient-derived cell culture)
In short: as §1

JHOS2 = system: JHOS2
In short: as §1

FIMM-PDC1 = patient-derived ovarian cancer cells; settings: genetic perturbation: none (patient-derived cell culture)
In short: as §1

[1] = genetic perturbation: DOX-induced PTK7 shRNA knockdown
[2] = genetic perturbation: DOX-induced control shRNA

Structure (SMILES)	drug sensitivity score (OVSAHO; [1])	drug sensitivity score (OVSAHO; [2])	drug sensitivity score (FIMM-PDC6)	drug sensitivity score (FIMM-PDC4)	drug sensitivity score (Kuramochi; [1])	drug sensitivity score (Kuramochi; [2])	drug sensitivity score (FIMM-PDC7)	drug sensitivity score (FIMM-PDC5)	drug sensitivity score (FIMM-PDC3)	drug sensitivity score (JHOS2; [1])	drug sensitivity score (JHOS2; [2])	drug sensitivity score (FIMM-PDC1)
CC(=O)c1cnc2ccc(-c3cc(Cl)c(O)c(Cl)c3)nc2c1N[C@H]1CC[C@H](CN(C)C)CC1 [OTS167]	8	10.6	13.9	12.3	10.1	5.8	14.6	14.7	12.4	15.7	18.8	11.3
O=C(c1cc(Cc2n[nH]c(=O)c3ccccc23)ccc1F)N1CCN(C(=O)C2CC2)CC1 [Olaparib]	3.5	2.5	9.2	3.8	3.35	2.6	6.1	6.1	1.5	6.6	3.2	3.45
COC(=O)C[C@](O)(CCCC(C)(C)O)C(=O)O[C@@H]1C(OC)=C[C@]23CCCN2CCc2cc4c(cc2[C@H]13)OCO4 [Omacetaxine]	21.7	21.7	25.3	22.9	23.8	14.3	23.8	21.3	27.2	20.8	21.6	23.7
CC1(C)CC[C@]2(NC(=O)C(C)(F)F)CC[C@]3(C)[C@H](C(=O)C=C4[C@@]5(C)C=C(C#N)C(=O)C(C)(C)[C@@H]5CC[C@]43C)[C@@H]2C1 [Omaveloxolone]	19.8	11.9	14.3	9.9	12.2	14.1	15.8	11.3	19.3	10.1	16.2	13.5
COc1ncc(-c2ccc3nccc(-c4ccnnc4)c3c2)cc1NS(=O)(=O)c1ccc(F)cc1F [Omipalisib]	17.7	17.7	16.5	19.8	17.8	10.8	20	21.9	17.7	9.3	10.5	11.7
CC(C)c1cc(C(=O)N2Cc3ccc(CN4CCN(C)CC4)cc3C2)c(O)cc1O [Onalespib]	< 0	5.4	12.8	15.1	7.1	< 0	10.6	12.5	9.4	10.3	11.4	10.4
COC[C@H](NC(=O)c1cnc(C)s1)C(=O)N[C@@H](COC)C(=O)N[C@@H](Cc1ccccc1)C(=O)[C@@]1(C)CO1 [Oprozomib]	17.3	10.2	24.9	15.9	12.6	18.3	19	11.6	23.6	23.6	17	19.5
C=CC(=O)Nc1cc(Nc2nccc(-c3cn(C)c4ccccc34)n2)c(OC)cc1N(C)CCN(C)C [Osimertinib]	5.9	3.3	12.5	11	4.8	4.3	9.6	14.4	9.5	4.1	4.1	4
O=C(O)C(=O)O.[NH-][C@@H]1CCCC[C@H]1[NH-].[Pt+2] [Oxaliplatin]	9.9	5.9	7.8	5	8.65	5.8	11.5	11.2	17.3	8.2	6.2	5.4
COc1ccccc1S(=O)(=O)Nc1ccc2c(c1)CN(C)C(=O)N2 [PFI-1]	4.4	8.4	1.3	0.9	7.65	5	1.3	4.9	1.6	2.1	3.4	1.2
CN1CCN(c2cc(C(=O)Nc3ccc4c(c3)-c3c(c(C(N)=O)nn3-c3ccc(F)cc3)CC4)c(Cl)cn2)CC1 [PHA 408]	7.3	2.8	4.8	2.7	2.75	2.3	2.8	3.8	4.7	8.3	< 0	< 0
COc1cc(Br)c(Nc2nc(-c3c(C)nc4ncccn34)cs2)c(Br)c1 [PTC-209]	1.5	2.3	4.3	2.2	3	1.5	6.3	4.6	10	3.7	9.7	6.1
CC(=O)O[C@H]1C(=O)[C@@]2(C)[C@H]([C@H](OC(=O)c3ccccc3)[C@]3(O)C[C@H](OC(=O)[C@H](O)[C@@H](NC(=O)c4ccccc4)c4ccccc4)C(C)=C1C3(C)C)[C@]1(OC(C)=O)CO[C@@H]1C[C@@H]2O [Paclitaxel]	11.1	15.6	10.5	18.7	18.1	3.1	7	20.8	18.4	17.3	11.7	15.9
C1=N/C2=N/c3ccc(OCCN4CCCC4)c(c3)COC/C=C/COCc3cccc(c3)C(=C1)N2 [Pacritinib]	10.1	9.6	7.5	7.6	7.05	9.3	5	10.6	7.7	9.3	10.9	6.7
Cc1[nH]c2ccccc2c1CCNCc1ccc(/C=C/C(=O)NO)cc1 [Panobinostat]	13.5	11.2	12.4	8.1	19	7.2	8.2	15	13.7	13	13.6	11
Nc1nc2[nH]cc(CCc3ccc(C(=O)N[C@@H](CCC(=O)O)C(=O)O)cc3)c2c(=O)[nH]1 [Pemetrexed]	< 0	1.5	1.5	< 0	0.6	7.9	< 0	< 0	< 0	0.4	< 0	2.05
